How the values were obtained:
[1] = system: canine model of repetitive transient regional ischemia; experiment: Myocardial stunning in dogs, repetitive transient regional ischemia; format: in vivo, dog
Protocol: The compound of the subject invention provided both an acute and delayed protective effect against cardiac stunning in dogs. Pretreatment of dogs with the compound of the subject invention 10 minutes and 24 hours prior to ischemia produced significant improvement in the recovery of regional segment shortening (%SS) in the ischemic-reperfused myocardium of anesthetized dogs subjected to a multiple ischemia/reperfusion stunning protocol. Dogs were subjected to five 5-minute periods of coronary artery occlusion interspersed with 10 minute periods of reperfusion and finally followed by 2 hours of reperfusion. Regional systolic shortening in the subendocardium of the ischemic area was determined by sonomicrometry by placing a set of piezoelectric crystals in the subendocardium approximately 10-15 mm apart. Regional myocardial blood flow was determined by the radioactive microsphere technique during the first 5 min occlusion period and at the end of 2 h of reperfusion. Hemodynamics and blood gases were also measured at various times throughout the experiment. There was no significant differences between the control and pretreated groups in body weight, left ventricular weight, area at risk weight or the area at risk as a % of the left ventricle. […]

rabbits (fever response) = experiment: Three rabbit USP pyrogen test; format: in vivo; design: key to Average Temperature Rise: body temperature rise in °F (decreases recorded as zero)
Protocol: The compound of the subject invention was evaluated for pyrogenicity using a standard three rabbit USP pyrogen test (NAMSA, Northwood Ohio) at dose levels between 10 and 1000 μg/kg. Three rabbits were intravenously administered the compound in 40% propylene glycol and 10% ethanol in water at varying doses diluted one to one in D5W prior to dosing. Each animal's body temperature was monitored over the course of 4 h. Pyrogenic doses and borderline pyrogenic doses were defined by established USP definitions. Any temperature decrease was recorded as a rise of zero. An individual rise in temperature of less than 0.5° F. was considered non-pyrogenic.

[2] = system: rabbit model of regional myocardial ischemia; experiment: Infarct size in rabbits, 30 min coronary occlusion and 3 h reperfusion; format: in vivo, New Zealand white rabbits
Protocol: Male New Zealand white rabbits weighing 2.5-3.5 kg were injected with vehicle or L34 24 h before the experiment. L34 was formulated in vehicle composed of 40% propylene glycol, 10% ethanol in water. For the experiment, animals were intramuscularly anesthetized with ketamine (35 mg/kg) and xylazine (5 mg/kg). Tracheotomy was performed and the animals intubated with a cuffed endotracheal tube (Portex, 4.0 mm internal diameter) and then mechanically ventilated with room air on a positive pressure respirator Q Industries, Mobile, Ala.). Ventilatory rate was 27-35 breaths per min, and tidal volume was approximately 10-17 ml. […] The EKG was recorded throughout the experiment via lead II of the standard elctrocardiogram. […]
At the end of each experiment, the ligature around the large marginal branch of the circumflex artery was retightened to reocclude the artery and approximately 4 ml of 10% Evans blue dye was injected into the jugular vein until the eyes turned blue. […] The area at risk was determined by negative staining and calculated as a percentage of the portion of left ventricle containing the risk area (AAR/LV %) and infarct size as a percentage of area at risk (IS/AAR %). […] Regions of infarcted tissue and the risk zone were determined by computer morphometry using Bioquant imaging software and the percentage of infarcted area and risk area calculated.

## CCCCCCCCCCCCCCCCCC(=O)O[C@H](CCCCCCCCCCC)CC(=O)N[C@H]1[C@H](OC[C@H]2OC(O)[C@H](NC(=O)C[C@@H](CCCCCCCCCCC)OC(=O)CCCCCCCCCCCCCCC)[C@@H](O)[C@@H]2O)O[C@H](CO)[C@@H](OP(=O)(O)O)[C@@H]1OC(=O)C[C@@H](CCCCCCCCCCC)OC(=O)CCCCCCCCCCCCC (stereo partly drawn) [L34, 2-Deoxy-6-O-[2-deoxy-4-O-phosphono-3-O-[(R)-3-tetradecanoyloxytetradecanoyl]-2-[(R)-3-octadecanoyloxytetradecanoylamino]-β-D-glucopyranosyl]-2-[(R)-3-hexadecanoyloxytetradecanoylamino]-D-glucopyranose]
[1]; 24 h pretreatment, after 1st and 4th occlusion and all times of final 2 h reperfusion, FIG. 6
  recovery of regional wall motion (%SS) vs control group: significantly greater recovery of regional wall motion (%SS)
[1]; pretreatment 10 min prior to first occlusion, after 1st, 2nd, 4th occlusion and all times of final 2 h reperfusion, FIG. 5
  recovery of regional wall motion (%SS) vs control group: significantly greater recovery of regional wall motion (%SS)
Rabbits (fever response); L34 dose 10 μg/kg i.v.
  Average Temperature Rise: 0.14
Rabbits (fever response); L34 dose 20 μg/kg i.v.
  Average Temperature Rise: 0.17
Rabbits (fever response); L34 dose 30 μg/kg i.v.
  Average Temperature Rise: 0.17
Rabbits (fever response); L34 dose 40 μg/kg i.v.
  Average Temperature Rise: 0.00
Rabbits (fever response); L34 dose 60 μg/kg i.v.
  Average Temperature Rise: 0.10
Rabbits (fever response); L34 dose 80 μg/kg i.v.
  Average Temperature Rise: 0.13
Rabbits (fever response); L34 dose 120 μg/kg i.v.
  Average Temperature Rise: 0.23
Rabbits (fever response); L34 dose 160 μg/kg i.v.
  Average Temperature Rise: 0.17
Rabbits (fever response); L34 dose 240 μg/kg i.v.
  Average Temperature Rise: 0.00
Rabbits (fever response); L34 dose 360 μg/kg i.v.
  Average Temperature Rise: 0.30
Rabbits (fever response); L34 dose 480 μg/kg i.v.
  Average Temperature Rise: 0.06
Rabbits (fever response); L34 dose 500 μg/kg i.v.
  Average Temperature Rise: 0.12
Rabbits (fever response); L34 dose 1000 μg/kg i.v.
  Average Temperature Rise: 0.10
Rabbits (fever response); i.v., dose levels between 10 and 1000 μg/kg
  pyrogenicity: not pyrogenic at any of the doses tested
[2]; 35 μg/kg given 24 h before ischemia, FIG. 1
  reduction in infarct size (percentage of area at risk) compared to controls: approximately 70%
[2]; doses of 10 to 35 μg/kg given 24 h before ischemia, FIG. 2
  reduction in infarct size, dose response: > 50%
